In publication PMC3360746, “CD36 Inhibitors Reduce Postprandial Hypertriglyceridemia and Protect against Diabetic Dyslipidemia and Atherosclerosis” (PLoS ONE, 2012):

Molecular target: T1, CD36 (Homo sapiens, UniProt P16671)
T1 construct: full length human CD36 stably expressed in HEK 293 cells
Assay: inhibition of Cy3-ox-LDL binding to HEK-CD36 cells at […]°C; affinity cross-linking of ox-LDL to CD36
Type: cell-based

T1 sequence (P16671 2-472): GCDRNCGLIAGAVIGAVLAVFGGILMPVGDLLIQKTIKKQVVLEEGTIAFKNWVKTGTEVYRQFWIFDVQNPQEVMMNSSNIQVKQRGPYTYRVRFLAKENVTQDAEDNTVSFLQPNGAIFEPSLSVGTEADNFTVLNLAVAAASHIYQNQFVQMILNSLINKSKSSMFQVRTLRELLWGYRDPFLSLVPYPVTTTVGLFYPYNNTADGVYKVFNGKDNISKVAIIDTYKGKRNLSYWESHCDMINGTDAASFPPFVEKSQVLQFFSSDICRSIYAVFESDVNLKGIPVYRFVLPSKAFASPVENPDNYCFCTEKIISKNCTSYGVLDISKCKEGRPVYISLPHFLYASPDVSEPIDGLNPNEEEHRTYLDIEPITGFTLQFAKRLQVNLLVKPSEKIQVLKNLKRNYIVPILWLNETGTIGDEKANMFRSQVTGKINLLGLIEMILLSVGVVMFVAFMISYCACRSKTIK

SMILES | IC50
COc1cc(O)c(/C=N/NC(=O)c2cc3ccccc3s2)c(OC)c1 [AP5055] | 1000 ± 100 nM
COc1cc(O)c(/C=N/NC(=O)c2ccc3nccn3c2)c(OC)c1 [AP5258] | 5000 ± 1000 nM
